Source: ChEMBL document CHEMBL2034887, “Substituted phenoxypropyl-(R)-2-methylpyrrolidine aminomethyl ketones as histamine-3 receptor inverse agonists” (Bioorg Med Chem Lett, 2012)
Activity calls are given as the source filed them. The rule behind the calls is not given here.

Experiments:
Cytochrome P450 1A2 = molecular target: T1, Cytochrome P450 1A2 (Homo sapiens, UniProt P05177); experiment: (§1) Inhibition of CYP1A2; type: ADME
T1 sequence (P05177 whole entry): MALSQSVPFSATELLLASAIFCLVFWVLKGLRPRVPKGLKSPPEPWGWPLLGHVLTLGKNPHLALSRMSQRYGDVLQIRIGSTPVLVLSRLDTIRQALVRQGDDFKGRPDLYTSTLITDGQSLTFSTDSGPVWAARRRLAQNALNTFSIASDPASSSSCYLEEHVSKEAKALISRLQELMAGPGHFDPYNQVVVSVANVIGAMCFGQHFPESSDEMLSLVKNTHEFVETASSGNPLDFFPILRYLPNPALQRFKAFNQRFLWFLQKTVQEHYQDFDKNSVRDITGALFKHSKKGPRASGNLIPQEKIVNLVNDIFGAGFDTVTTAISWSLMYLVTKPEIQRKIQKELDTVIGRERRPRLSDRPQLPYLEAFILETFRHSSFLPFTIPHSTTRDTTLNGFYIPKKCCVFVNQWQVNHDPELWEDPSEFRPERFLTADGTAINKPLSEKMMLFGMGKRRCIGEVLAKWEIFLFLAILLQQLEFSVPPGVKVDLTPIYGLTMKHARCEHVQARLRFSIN

Rattus norvegicus [1] = experiment: Wake promoting activity in EEG/EMG Sprague-Dawley rat model at 10 to 30 mg/kg, ip measured after 9 hrs; type: functional, organism-based
[2] = Half life in mouse liver microsomes; type: ADME, Microsome
Cytochrome P450 2D6 = Cytochrome P450 2D6 (Homo sapiens, UniProt P10635); experiment: (§2) Inhibition of CYP2D6; type: ADME
Cytochrome P450 2D6, sequence (P10635 whole entry): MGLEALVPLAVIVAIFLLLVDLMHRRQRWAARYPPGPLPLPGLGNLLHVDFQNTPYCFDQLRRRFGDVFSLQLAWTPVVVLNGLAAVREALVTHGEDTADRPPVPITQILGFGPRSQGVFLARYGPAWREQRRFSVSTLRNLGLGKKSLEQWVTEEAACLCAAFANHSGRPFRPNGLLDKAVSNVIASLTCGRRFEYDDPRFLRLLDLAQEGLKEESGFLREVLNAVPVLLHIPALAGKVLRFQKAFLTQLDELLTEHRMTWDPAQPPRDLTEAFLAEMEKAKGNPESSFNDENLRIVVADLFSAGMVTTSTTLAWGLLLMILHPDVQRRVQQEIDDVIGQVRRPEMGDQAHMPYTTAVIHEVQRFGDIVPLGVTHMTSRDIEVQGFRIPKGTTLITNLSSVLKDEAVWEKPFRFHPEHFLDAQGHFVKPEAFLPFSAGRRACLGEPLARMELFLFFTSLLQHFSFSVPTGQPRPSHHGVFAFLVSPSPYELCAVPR

Rattus norvegicus [3] = experiment: Inhibition of RAMH-induced dipsogenia in ip dosed rat; type: functional
[4] = Half life in dog liver microsomes; type: ADME, Canis lupus familiaris, Microsome
Histamine H3 receptor [5] = molecular target: Histamine H3 receptor (Rattus norvegicus, UniProt Q9QYN8); experiment: Displacement of [3H]NAMH from rat histamine H3 receptor expressed in CHO cells; type: cell-based
Histamine H3 receptor (Rattus norvegicus, UniProt Q9QYN8), sequence (Q9QYN8 whole entry): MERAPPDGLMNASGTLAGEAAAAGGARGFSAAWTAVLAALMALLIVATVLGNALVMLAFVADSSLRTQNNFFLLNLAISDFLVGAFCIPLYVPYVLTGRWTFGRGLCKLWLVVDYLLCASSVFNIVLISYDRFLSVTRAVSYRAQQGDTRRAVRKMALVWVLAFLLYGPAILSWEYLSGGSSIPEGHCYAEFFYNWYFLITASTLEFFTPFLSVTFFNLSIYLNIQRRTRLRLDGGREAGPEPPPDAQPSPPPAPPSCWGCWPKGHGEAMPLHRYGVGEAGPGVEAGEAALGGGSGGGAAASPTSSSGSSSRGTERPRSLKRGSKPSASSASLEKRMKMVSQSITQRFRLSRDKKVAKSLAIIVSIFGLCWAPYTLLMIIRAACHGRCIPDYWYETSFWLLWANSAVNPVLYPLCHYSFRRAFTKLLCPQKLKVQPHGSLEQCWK

[6] = Oral bioavailability in rat at 5 mg/kg; type: ADME, organism-based; details: in vivo
Histamine H3 receptor [7] = molecular target: T2, Histamine H3 receptor (Homo sapiens, UniProt Q9Y5N1); experiment: Antagonist activity at human histamine H3 receptor assessed as inhibition of [35S]-GTPgammaS binding; type: functional
T2 sequence (Q9Y5N1 whole entry): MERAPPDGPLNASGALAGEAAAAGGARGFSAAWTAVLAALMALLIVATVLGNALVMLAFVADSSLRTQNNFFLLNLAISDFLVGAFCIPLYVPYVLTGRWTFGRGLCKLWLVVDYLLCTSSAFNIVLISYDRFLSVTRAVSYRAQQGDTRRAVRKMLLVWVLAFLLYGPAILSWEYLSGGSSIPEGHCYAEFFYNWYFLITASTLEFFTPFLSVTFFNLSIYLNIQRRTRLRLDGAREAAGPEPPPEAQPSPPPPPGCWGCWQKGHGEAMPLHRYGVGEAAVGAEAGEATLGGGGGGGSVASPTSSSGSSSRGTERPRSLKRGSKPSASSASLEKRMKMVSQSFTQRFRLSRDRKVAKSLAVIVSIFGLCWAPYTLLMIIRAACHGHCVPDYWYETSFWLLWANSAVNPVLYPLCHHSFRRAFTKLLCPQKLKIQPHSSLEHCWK

Histamine H3 receptor [8] = molecular target: T2, Histamine H3 receptor; experiment: Inverse agonist activity at human histamine H3 receptor by [35S]-GTPgammaS binding assay; type: functional
[9] = Half life in rat liver microsomes; type: ADME, Microsome
[10] = Volume of distribution in rat at […], iv; type: ADME, organism-based; details: in vivo
[11] = Half life in rat at […], iv; type: ADME, organism-based; details: in vivo
[12] = Clearance in rat at […], iv; type: ADME, organism-based; details: in vivo
[13] = Ratio of drug level in brain to plasma in rat at 5 mg/kg, po measured after 6 hrs; type: ADME, organism-based; set-up: dose 5 mg/kg, route oral; details: read-out: BPR
[14] = Cmax in rat at 5 mg/kg, po; type: ADME, organism-based; set-up: dose 5 mg/kg, route oral; details: in vivo
Cytochrome P450 2C9 = Cytochrome P450 2C9 (Homo sapiens, UniProt P11712); experiment: (§3) Inhibition of CYP2C9; type: ADME
Cytochrome P450 2C9, sequence (P11712 whole entry): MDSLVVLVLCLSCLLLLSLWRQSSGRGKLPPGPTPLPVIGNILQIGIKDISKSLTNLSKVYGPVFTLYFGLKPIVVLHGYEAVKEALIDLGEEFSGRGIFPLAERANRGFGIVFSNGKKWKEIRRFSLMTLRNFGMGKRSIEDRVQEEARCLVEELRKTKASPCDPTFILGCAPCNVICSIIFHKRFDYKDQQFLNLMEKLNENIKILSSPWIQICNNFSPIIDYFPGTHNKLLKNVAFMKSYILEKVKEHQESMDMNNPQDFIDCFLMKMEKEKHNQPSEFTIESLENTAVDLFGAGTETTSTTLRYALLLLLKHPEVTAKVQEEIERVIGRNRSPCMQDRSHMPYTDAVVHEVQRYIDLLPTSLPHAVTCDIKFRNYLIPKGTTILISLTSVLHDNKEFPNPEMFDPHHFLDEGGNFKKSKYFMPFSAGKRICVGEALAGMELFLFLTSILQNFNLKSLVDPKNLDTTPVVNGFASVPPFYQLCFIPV

[15] = AUC in rat at 5 mg/kg, po; type: ADME, organism-based; set-up: dose 5 mg/kg, route oral; details: plasma
Cytochrome P450 3A4 = Cytochrome P450 3A4 (Homo sapiens, UniProt P08684); experiment: (§4) Inhibition of CYP3A4; type: ADME
Cytochrome P450 3A4, sequence (P08684 whole entry): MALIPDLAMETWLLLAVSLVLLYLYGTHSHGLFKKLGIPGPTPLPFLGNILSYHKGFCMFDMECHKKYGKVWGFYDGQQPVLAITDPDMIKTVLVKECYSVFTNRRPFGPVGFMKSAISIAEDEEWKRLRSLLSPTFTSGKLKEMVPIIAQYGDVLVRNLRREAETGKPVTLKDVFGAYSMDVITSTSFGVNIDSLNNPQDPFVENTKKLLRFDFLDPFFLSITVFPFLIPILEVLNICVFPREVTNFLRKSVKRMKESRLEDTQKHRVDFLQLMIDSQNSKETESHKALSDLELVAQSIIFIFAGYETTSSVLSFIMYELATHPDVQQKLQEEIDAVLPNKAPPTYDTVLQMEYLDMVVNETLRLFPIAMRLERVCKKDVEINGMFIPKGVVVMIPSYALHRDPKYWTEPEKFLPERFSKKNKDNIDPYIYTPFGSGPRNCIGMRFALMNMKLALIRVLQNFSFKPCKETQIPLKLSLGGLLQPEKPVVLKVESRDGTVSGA

Cytochrome P450 2C19 = Cytochrome P450 2C19 (Homo sapiens, UniProt P33261); experiment: (§5) Inhibition of CYP2C19; type: ADME
Cytochrome P450 2C19, sequence (P33261 whole entry): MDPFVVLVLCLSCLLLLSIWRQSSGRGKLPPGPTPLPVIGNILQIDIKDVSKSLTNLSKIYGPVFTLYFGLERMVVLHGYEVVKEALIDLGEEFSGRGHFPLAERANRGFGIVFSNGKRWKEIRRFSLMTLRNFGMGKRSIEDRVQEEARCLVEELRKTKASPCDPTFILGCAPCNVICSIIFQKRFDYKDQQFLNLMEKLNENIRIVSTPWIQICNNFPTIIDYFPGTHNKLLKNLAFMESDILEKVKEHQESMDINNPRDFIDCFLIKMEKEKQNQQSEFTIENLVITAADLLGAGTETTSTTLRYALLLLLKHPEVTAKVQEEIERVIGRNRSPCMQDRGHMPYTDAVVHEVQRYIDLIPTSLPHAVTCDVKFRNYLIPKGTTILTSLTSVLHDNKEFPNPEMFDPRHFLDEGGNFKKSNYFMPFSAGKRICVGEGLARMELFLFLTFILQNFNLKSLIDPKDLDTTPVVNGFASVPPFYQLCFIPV

Histamine H3 receptor [16] = molecular target: T2, Histamine H3 receptor; experiment: Displacement of [3H]NAMH from human histamine H3 receptor expressed in CHO cells; type: cell-based
[17] = Half life in human liver microsomes; type: ADME, Microsome
[18] = Half life in monkey liver microsomes; type: ADME, Macaca mulatta, Microsome; details: rhesus monkey
CYP1A2 = molecular target: T3, CYP1A2 (Homo sapiens, UniProt P05177); experiment: as §1; type: ADME
T3 sequence (P05177 whole entry): T1 sequence (P05177 whole entry)

hERG (KCNH2) = hERG (KCNH2) (Homo sapiens, UniProt Q12809); experiment: Inhibition of human ERG at 10 uM
CYP2D6 = CYP2D6 (Homo sapiens, UniProt P10635); experiment: as §2; type: ADME
CYP2D6, sequence (P10635 whole entry): as the sequence (P10635 whole entry) above

[19] = Plasma protein binding in human; type: ADME, cell-free; details: read-out: PPB
[20] = Plasma protein binding in rat; type: ADME, cell-free; details: read-out: PPB
[21] = molecular target: Histamine H1 receptor (Homo sapiens) (UniProt P35367); experiment: Inhibition of human histamine H1 receptor at 10 uM
Histamine H1 receptor (Homo sapiens), sequence (P35367 whole entry): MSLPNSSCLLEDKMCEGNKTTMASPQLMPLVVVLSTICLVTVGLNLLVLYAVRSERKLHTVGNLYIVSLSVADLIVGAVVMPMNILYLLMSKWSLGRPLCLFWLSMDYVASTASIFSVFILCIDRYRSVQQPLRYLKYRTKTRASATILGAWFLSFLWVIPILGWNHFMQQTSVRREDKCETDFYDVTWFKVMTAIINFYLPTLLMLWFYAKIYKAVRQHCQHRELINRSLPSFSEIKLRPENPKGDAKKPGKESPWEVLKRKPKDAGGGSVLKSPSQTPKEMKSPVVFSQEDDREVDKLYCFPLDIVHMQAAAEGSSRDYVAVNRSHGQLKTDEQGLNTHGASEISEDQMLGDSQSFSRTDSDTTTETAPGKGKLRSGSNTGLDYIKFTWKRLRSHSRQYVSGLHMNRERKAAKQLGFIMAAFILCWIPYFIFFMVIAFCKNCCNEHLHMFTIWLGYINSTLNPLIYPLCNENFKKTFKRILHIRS

[22] = molecular target: Histamine H2 receptor (Homo sapiens) (UniProt P25021); experiment: Inhibition of human histamine H2 receptor at 10 uM
[23] = molecular target: Histamine H4 receptor (Homo sapiens) (UniProt Q9H3N8); experiment: Inhibition of human histamine H4 receptor at 10 uM
Histamine H4 receptor (Homo sapiens), sequence (Q9H3N8 whole entry): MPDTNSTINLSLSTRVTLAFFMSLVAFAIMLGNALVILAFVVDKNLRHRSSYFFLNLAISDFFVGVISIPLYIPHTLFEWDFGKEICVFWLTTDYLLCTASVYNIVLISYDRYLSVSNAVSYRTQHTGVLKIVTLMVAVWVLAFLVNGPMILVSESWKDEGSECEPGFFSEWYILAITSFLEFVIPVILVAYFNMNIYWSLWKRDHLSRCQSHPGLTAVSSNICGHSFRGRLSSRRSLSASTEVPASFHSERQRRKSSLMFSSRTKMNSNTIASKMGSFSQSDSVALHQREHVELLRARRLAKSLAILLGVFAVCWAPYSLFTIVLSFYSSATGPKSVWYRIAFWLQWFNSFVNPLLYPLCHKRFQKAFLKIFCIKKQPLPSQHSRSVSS

CYP2C9 = CYP2C9 (Homo sapiens, UniProt P11712); experiment: as §3; type: ADME
CYP2C9, sequence (P11712 whole entry): as the sequence (P11712 whole entry) above

Caco-2 = experiment: Permeability across human Caco2 cells; type: ADME, cell-based
CYP3A4 = CYP3A4 (Homo sapiens, UniProt P08684); experiment: as §4; type: ADME
CYP3A4, sequence (P08684 whole entry): as the sequence (P08684 whole entry) above

CYP2C19 = CYP2C19 (Homo sapiens, UniProt P33261); experiment: as §5; type: ADME
CYP2C19, sequence (P33261 whole entry): as the sequence (P33261 whole entry) above

Rattus norvegicus [24] = experiment: Wake promoting activity in EEG/EMG Sprague-Dawley rat model assessed as wake time at 30 mg/kg, ip measured up to 4 hrs (reference value: 85 +/- 9 mins); type: functional; details: route intraperitoneal
Rattus norvegicus [25] = experiment: Wake promoting activity in EEG/EMG Sprague-Dawley rat model at 30 mg/kg, ip measured after 3.5 hrs relative to control; type: functional, organism-based; set-up: dose 30 mg/kg
Rattus norvegicus [26] = experiment: Wake promoting activity in EEG/EMG Sprague-Dawley rat model assessed as cumulative wake time at 30 mg/kg, ip measured after 5 hrs relative to control; type: functional; details: route intraperitoneal
Rattus norvegicus [27] = experiment: Inhibition of RAMH-induced dipsogenia in rat at 1 mg/kg, ip; type: functional, organism-based; set-up: dose 1 mg/kg
Rattus norvegicus [28] = experiment: Wake promoting activity in EEG/EMG Sprague-Dawley rat model assessed as wake time at 10 mg/kg, ip measured up to 4 hrs (reference value: 85 +/- 9 mins); type: functional; details: route intraperitoneal
Rattus norvegicus [29] = experiment: Wake promoting activity in EEG/EMG Sprague-Dawley rat model assessed as maximal cumulative wake surplus time at 10 to 30 mg/kg, ip measured after 9 hrs; type: functional; details: dose mg/kg 10-30; route intraperitoneal
Rattus norvegicus [30] = experiment: Wake promoting activity in EEG/EMG Sprague-Dawley rat model assessed as sleep rebound at 10 to 30 mg/kg, ip; type: functional, organism-based
Rattus norvegicus [31] = experiment: Wake promoting activity in EEG/EMG Sprague-Dawley rat model measured up to 4 hrs post dosing; type: functional, organism-based

COC(=O)N1CCN(CC(=O)c2ccc(OCCCN3CCC[C@H]3C)cc2)CC1
IC50 (Cytochrome P450 1A2): > 30000 nM | Activity (Rattus norvegicus [1]): inactive | half-life [2]: > 40 min | IC50 (Cytochrome P450 2D6): > 30000 nM | ED50 (Rattus norvegicus [3]): 0.54 mg/kg | inhibition (Rattus norvegicus [3]): Dose-dependent effect | half-life [4]: > 40 min | Ki (Histamine H3 receptor [5]): 19 nM | bioavailability [6]: 22% | Kb (Histamine H3 receptor [7]): 0.4 nM | EC50 (Histamine H3 receptor [8]): 0.9 nM | half-life [9]: > 40 min | Vd [10]: 5.4 L/kg | half-life [11]: 156 min | clearance [12]: 24 mL/min/kg | Kp at 6 h [13]: 4.3 | Cmax [14]: 128 ng/mL | IC50 (Cytochrome P450 2C9): > 30000 nM | AUC [15]: 619 ng·h/mL | IC50 (Cytochrome P450 3A4): > 30000 nM | IC50 (Cytochrome P450 2C19): > 30000 nM | Ki (Histamine H3 receptor [16]): 3.2 nM | half-life [17]: > 40 min | half-life [18]: > 40 min

C[C@@H]1CCCN1CCCOc1ccc(C(=O)CN2CCOCC2)cc1
IC50 (CYP1A2): > 30000 nM | inhibition at 10 µM (hERG (KCNH2)): 21% | half-life [2]: > 40 min | IC50 (CYP2D6): > 30000 nM | fraction unbound [19]: > 0.8 | half-life [4]: > 40 min | fraction unbound [20]: > 0.8 | half-life [9]: > 40 min | inhibition [21]: < 50% | inhibition [22]: < 50% | Vd [10]: 27 L/kg | half-life [11]: 138 min | inhibition [23]: < 50% | clearance [12]: 126 mL/min/kg | Kp at 6 h [13]: 50 | Cmax [14]: 17 ng/mL | IC50 (CYP2C9): > 30000 nM | permeability (Caco-2): permeable | AUC [15]: 81 ng·h/mL | IC50 (CYP3A4): > 30000 nM | IC50 (CYP2C19): > 30000 nM | half-life [17]: > 40 min | half-life [18]: > 40 min

C[C@@H]1CCCN1CCCOc1ccc(C(=O)CN2CCN(C(=O)c3cccn3C)CC2)cc1
Ki (Histamine H3 receptor [5]): 9.4 nM | Kp at 6 h [13]: < 0.6 | Ki (Histamine H3 receptor [16]): 0.9 nM

C[C@@H]1CCCN1CCCOc1ccc(C(=O)CN2CCC(F)(F)CC2)cc1
IC50 (Cytochrome P450 1A2): > 30000 nM | Time (Rattus norvegicus [24]): 195 min | IC50 (Cytochrome P450 2D6): > 30000 nM | Activity (Rattus norvegicus [25]): Active | Ki (Histamine H3 receptor [5]): 43 nM | bioavailability [6]: 15% | Kb (Histamine H3 receptor [7]): 3.7 nM | EC50 (Histamine H3 receptor [8]): 1.8 nM | Time (Rattus norvegicus [26]): 113 min | inhibition (Rattus norvegicus [27]): Active | Time (Rattus norvegicus [28]): 150 min | Vd [10]: 2.2 L/kg | half-life [11]: 30 min | Time (Rattus norvegicus [29]): 46 min | clearance [12]: 53 mL/min/kg | Activity (Rattus norvegicus [30]): inactive | Kp at 6 h [13]: 25 | Cmax [14]: 66 ng/mL | IC50 (Cytochrome P450 2C9): > 30000 nM | Activity (Rattus norvegicus [31]): Dose-dependent effect | AUC [15]: 266 ng·h/mL | IC50 (Cytochrome P450 3A4): > 30000 nM | IC50 (Cytochrome P450 2C19): > 30000 nM | Ki (Histamine H3 receptor [16]): 11 nM

C[C@@H]1CCCN1CCCOc1ccc(C(=O)CN2CCC(C(F)(F)F)CC2)cc1
Ki (Histamine H3 receptor [5]): 9.1 nM | Ki (Histamine H3 receptor [16]): 2.5 nM

C[C@@H]1CCCN1CCCOc1ccc(C(=O)CN2CCN(C(=O)Oc3ccc(F)cc3)CC2)cc1
Ki (Histamine H3 receptor [5]): 3.7 nM | Ki (Histamine H3 receptor [16]): 3 nM

C[C@@H]1CCCN1CCCOc1ccc(C(=O)CN2CCN(C(=O)Oc3ccccc3)CC2)cc1
Ki (Histamine H3 receptor [5]): 6.9 nM | Ki (Histamine H3 receptor [16]): 3.9 nM

C[C@@H]1CCCN1CCCOc1ccc(C(=O)CN2CCN(C(=O)C(F)(F)F)CC2)cc1
Ki (Histamine H3 receptor [5]): 17 nM | Ki (Histamine H3 receptor [16]): 2.1 nM

C[C@@H]1CCCN1CCCOc1ccc(C(=O)CN2CCCC(F)(F)C2)cc1
Ki (Histamine H3 receptor [5]): 48 nM | Ki (Histamine H3 receptor [16]): 9 nM

CCOC(=O)N1CCN(CC(=O)c2ccc(OCCCN3CCC[C@H]3C)cc2)CC1
IC50 (Cytochrome P450 2D6): 5000 nM | Ki (Histamine H3 receptor [5]): 23 nM | bioavailability [6]: 33% | Vd [10]: 2.8 L/kg | half-life [11]: 126 min | clearance [12]: 16 mL/min/kg | Kp at 6 h [13]: 2.4 | Ki (Histamine H3 receptor [16]): 4 nM
